Test results reported in patent US20170022171A1, “2,5-DISUBSTITUTED CYCLOPENTANECARBOXYLIC ACIDS AND THEIR USE” (Bayer Pharma Aktiengesellschaft, priority 2014, published 2017).

Key:
Format in all cases: biochemical
MMP-7 = biological target: T1, MMP-7 (Homo sapiens, UniProt P09237); assay: In vitro MMP-7 inhibition test
T1 construct: purchased R&D Systems 907-MP
T1 sequence (P09237 95-267): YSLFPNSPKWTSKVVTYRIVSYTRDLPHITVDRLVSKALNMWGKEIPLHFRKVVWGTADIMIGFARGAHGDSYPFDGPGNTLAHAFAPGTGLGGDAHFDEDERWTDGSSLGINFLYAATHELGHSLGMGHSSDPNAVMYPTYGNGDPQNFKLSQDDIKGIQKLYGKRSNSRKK
Text: (§1) The MMP-mediated amidolytic cleavage of a suitable peptide substrate leads to an increase in fluorescent light here too. The signal intensity of the fluorescent light is directly proportional to the enzyme activity. The active concentration of a test compound at which half the enzyme is inhibited (50% signal intensity of the fluorescent light) is reported as the IC50 value.
Recombinant MMP-7 (from R&D Systems, 907-MP) is chemically activated in accordance with the manufacturer's instructions using APMA. 1 μl of the test compound to be analysed (as a solution in DMSO, suitable concentrations, for example, 1 nM to 30 μM) is pipetted into 24 μl of activated enzyme (final concentration, for example, 0.5 nM) in reaction buffer (50 mM Tris/HCl pH 7.5, 10 mM CaCl2, 150 mM NaCl, 0.05% Brij®-35) in a white 384-hole microtiter plate (MTP). The enzymatic reaction is started by adding the intramolecularly quenched Mca-Pro-Leu-Gly-Leu-Dpa(Dnp)-Ala-Arg-NH2 substrate (final concentration, for example, 10 μM; R&D Systems, ES-001), so as to result in a total test volume of […] The course of the MMP-7 reaction is measured by measuring the fluorescence intensity (excitation 320 nm, emission 410 nm) over a suitable period of time (for example over 120 min at a temperature of 32° C.).

MMP-9 = biological target: T2, MMP-9 (Homo sapiens, UniProt P14780); assay: In vitro MMP-9 inhibition test
T2 construct: purchased R&D Systems 911-MP
T2 sequence (P14780 107-707 limits assumed): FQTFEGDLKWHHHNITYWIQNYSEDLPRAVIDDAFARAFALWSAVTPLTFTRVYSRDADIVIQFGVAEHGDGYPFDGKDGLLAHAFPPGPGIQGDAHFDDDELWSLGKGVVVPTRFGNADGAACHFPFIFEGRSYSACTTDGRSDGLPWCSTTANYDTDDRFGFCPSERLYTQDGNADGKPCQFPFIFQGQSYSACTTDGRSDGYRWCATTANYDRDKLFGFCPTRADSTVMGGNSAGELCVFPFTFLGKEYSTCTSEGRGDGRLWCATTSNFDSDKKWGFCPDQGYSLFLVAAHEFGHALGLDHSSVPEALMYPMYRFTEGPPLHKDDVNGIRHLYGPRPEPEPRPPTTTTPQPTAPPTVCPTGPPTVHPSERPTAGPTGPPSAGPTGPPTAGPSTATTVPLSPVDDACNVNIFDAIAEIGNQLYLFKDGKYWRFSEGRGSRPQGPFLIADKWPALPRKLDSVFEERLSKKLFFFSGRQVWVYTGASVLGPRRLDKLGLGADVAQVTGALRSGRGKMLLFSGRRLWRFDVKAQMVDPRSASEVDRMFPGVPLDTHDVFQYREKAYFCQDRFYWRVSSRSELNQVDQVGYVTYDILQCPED
Text: as §1
(§2) Recombinant MMP-9 (from R&D Systems, 911-MP) is chemically activated in accordance with the manufacturer's instructions using APMA. 1 μl of the test compound to be analysed (as a solution in DMSO, suitable concentrations, for example, 1 nM to 30 μM) is pipetted into 24 μl of activated enzyme (final concentration, for example, 0.1 nM) in reaction buffer (50 mM Tris/HCl pH 7.5, 10 mM CaCl2, 150 mM NaCl, 0.05% Brij®-35) in a white 384-hole microtiter plate (MTP). The enzymatic reaction is started by adding the intramolecularly quenched Mca-Pro-Leu-Gly-Leu-Dpa(Dnp)-Ala-Arg-NH2 substrate (final concentration, for example, 10 μM; R&D Systems, ES-001), so as to result in a total test volume of 50 μl. The course of the MMP-9 reaction is measured by measuring the fluorescence intensity (excitation 320 nm, emission 410 nm) over a suitable period of time (for example over 120 min at a temperature of 32° C.).

[1] = biological target: T3, human macrophage elastase (HME/hMMP-12) (Homo sapiens, UniProt P39900); assay: In vitro HME inhibition test (standard or high-sensitivity); conditions: in some cases mean values
T3 construct: 0.5 nM HME; purchased R&D Systems 917-MP
T3 sequence (P39900 106-470): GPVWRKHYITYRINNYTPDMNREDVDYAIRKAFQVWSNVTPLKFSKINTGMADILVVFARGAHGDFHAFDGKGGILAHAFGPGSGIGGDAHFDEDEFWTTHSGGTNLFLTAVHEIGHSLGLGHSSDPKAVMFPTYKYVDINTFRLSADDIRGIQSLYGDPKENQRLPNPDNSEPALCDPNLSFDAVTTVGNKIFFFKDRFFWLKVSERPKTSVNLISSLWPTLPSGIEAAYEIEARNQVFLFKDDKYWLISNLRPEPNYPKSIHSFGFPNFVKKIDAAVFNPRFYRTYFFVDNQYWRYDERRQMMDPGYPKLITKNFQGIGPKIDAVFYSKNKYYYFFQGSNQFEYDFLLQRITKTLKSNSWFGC
Procedure, shortened: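 Fluorogenic assay: 0.5 nM autoactivated HME with 5 µM Mca-Pro-Leu-Gly-Leu-Glu-Glu-Ala-Dap(Dnp)-NH2 in HEPES pH 7.4 buffer (NaCl, CaCl2, ZnCl2, EDTA, Brij), 2 h at 37 °C; ex 323/em 393 nm. IC50 from fluorescence versus concentration. High-sensitivity format: ~0.05 nM enzyme, ~16 h incubation.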

MMP-1 = biological target: T4, MMP-1 (Homo sapiens, UniProt P03956); assay: In vitro MMP-1 inhibition test
T4 construct: purchased R&D Systems 901-MP
T4 sequence (P03956 100-469): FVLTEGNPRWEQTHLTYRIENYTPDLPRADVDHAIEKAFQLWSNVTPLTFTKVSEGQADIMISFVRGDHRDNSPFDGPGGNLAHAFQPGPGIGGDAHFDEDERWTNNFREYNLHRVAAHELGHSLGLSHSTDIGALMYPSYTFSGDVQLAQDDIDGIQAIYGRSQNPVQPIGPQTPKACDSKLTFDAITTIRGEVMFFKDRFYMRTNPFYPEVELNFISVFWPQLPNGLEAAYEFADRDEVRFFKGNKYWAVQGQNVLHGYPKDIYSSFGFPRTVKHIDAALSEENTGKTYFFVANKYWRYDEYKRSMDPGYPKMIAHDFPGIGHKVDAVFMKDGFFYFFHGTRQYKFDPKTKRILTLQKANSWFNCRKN
Text: as §1
as §2, with “MMP-1” for “MMP-9”, “901-MP)” for “911-MP)”, “2” for “0.1”

SMILES | IC50 (MMP-7) [nM] | IC50 (MMP-9) [nM] | IC50 [1] [nM] | IC50 (MMP-1) [µM]
O=C(O)[C@@H]1[C@@H](Cn2nnc3ccc(C(F)(F)F)cc3c2=O)CC[C@H]1C(=O)c1ccc(OCc2ccc(F)cc2)cc1 (single isomer, unassigned) [Example 13, (+)-(1RS,2RS,5SR)-2-{4-[(4-Fluorobenzyl)oxy]benzoyl}-5-{[4-oxo-6-(trifluoromethyl)-1,2,3-benzotriazin-3(4H)-yl]methyl}cyclopentanecarboxylic acid] | 120 | 4.4 | 0.018 | 3.3
Cc1cccc(COc2ccc(C(=O)[C@@H]3CC[C@H](Cn4nnc5ccc(C(F)(F)F)cc5c4=O)[C@H]3C(=O)O)cc2)c1 (single isomer, unassigned) [Example 16, (+)-(1RS,2RS,5SR)-2-{4-[(3-Methylbenzyl)oxy]benzoyl}-5-{[4-oxo-6-(trifluoromethyl)-1,2,3-benzotriazin-3(4H)-yl]methyl}cyclopentanecarboxylic acid] | 190 | 440 | 0.064 | 7.1
O=C(O)[C@@H]1[C@@H](Cn2nnc3ccc(C(F)(F)F)cc3c2=O)CC[C@H]1C(=O)c1ccc(OCc2cccc(C(F)(F)F)c2)cc1 (single isomer, unassigned) [Example 19, (+)-(1RS,2SR,5RS)-2-{[4-Oxo-6-(trifluoromethyl)-1,2,3-benzotriazin-3(4H)-yl]methyl}-5-(4-{[3-(trifluoromethyl)benzyl]oxy}benzoyl)cyclopentanecarboxylic acid] | 1600 | 1000 | 0.027 | 37
O=C(O)[C@@H]1[C@@H](Cn2nnc3ccc(C(F)(F)F)cc3c2=O)CC[C@H]1C(=O)c1ccc(OCc2cccc(Cl)c2)cc1 (single isomer, unassigned) [Example 23, (+)-(1RS,2RS,5SR)-2-{4-[(3-Chlorobenzyl)oxy]benzoyl}-5-{[4-oxo-6-(trifluoromethyl)-1,2,3-benzotriazin-3(4H)-yl]methyl}cyclopentanecarboxylic acid] | 500 | 270 | 0.032 | 24
O=C(O)[C@@H]1[C@@H](Cn2nnc3ccc(C(F)(F)F)cc3c2=O)CC[C@H]1C(=O)c1ccc(OCc2ccc(Cl)cc2)cc1 (single isomer, unassigned) [Example 25, (+)-(1RS,2RS,5SR)-2-{4-[(4-Chlorobenzyl)oxy]benzoyl}-5-{[4-oxo-6-(trifluoromethyl)-1,2,3-benzotriazin-3(4H)-yl]methyl}cyclopentanecarboxylic acid] | 120 | 3 | 0.013 | 2.3
O=C(O)[C@@H]1[C@@H](Cn2nnc3ccc(C(F)(F)F)cc3c2=O)CC[C@H]1C(=O)c1ccc(OCc2cccc(N3CCOC3=O)c2)cc1 (single isomer, unassigned) [Example 35, (+)-(1RS,2RS,5SR)-2-(4-{[3-(2-Oxo-1,3-oxazolidin-3-yl)benzyl]oxy}benzoyl)-5-{[4-oxo-6-(trifluoromethyl)-1,2,3-benzotriazin-3(4H)-yl]methyl}cyclopentanecarboxylic acid] | 31 | 1400 | 0.013 | 2.1
O=C(O)[C@@H]1[C@@H](Cn2nnc3ccc(C(F)(F)F)cc3c2=O)CC[C@H]1C(=O)c1ccc(OCC2CCCCC2)cc1 (single isomer, unassigned) [Example 41, (+)-(1RS,2RS,5SR)-2-[4-(Cyclohexylmethoxy)benzoyl]-5-{[4-oxo-6-(trifluoromethyl)-1,2,3-benzotriazin-3(4H)-yl]methyl}cyclopentanecarboxylic acid] | 68 | 51 | 0.01 | 3.1
O=C(O)[C@@H]1[C@@H](Cn2nnc3ccc(C(F)(F)F)cc3c2=O)CC[C@H]1C(=O)c1ccc(OCC2CCCC2)cc1 (single isomer, unassigned) [Example 44, (+)-(1RS,2RS,5SR)-2-[4-(Cyclopentylmethoxy)benzoyl]-5-{[4-oxo-6-(trifluoromethyl)-1,2,3-benzotriazin-3(4H)-yl]methyl}cyclopentanecarboxylic acid] | 140 | 52 | 0.024 | 3.6
O=C(O)[C@@H]1[C@@H](Cn2nnc3ccc(C(F)(F)F)cc3c2=O)CC[C@H]1C(=O)c1ccc(OCCC2CCCCC2)cc1 (single isomer, unassigned) [Example 52, (+)-(1RS,2RS,5SR)-2-[4-(2-Cyclohexylethoxy)benzoyl]-5-{[4-oxo-6-(trifluoromethyl)-1,2,3-benzotriazin-3(4H)-yl]methyl}cyclopentanecarboxylic acid] | 340 | 830 | 0.017 | 6.3
O=C(O)[C@@H]1[C@@H](Cn2nnc3ccc(C(F)(F)F)cc3c2=O)CC[C@H]1C(=O)c1ccc(OCCC2CCCC2)cc1 (single isomer, unassigned) [Example 55, (+)-(1RS,2RS,5SR)-2-[4-(2-Cyclopentylethoxy)benzoyl]-5-{[4-oxo-6-(trifluoromethyl)-1,2,3-benzotriazin-3(4H)-yl]methyl}cyclopentanecarboxylic acid] | 260 | 940 | 0.037 | 15
CCCCCCOc1ccc(C(=O)[C@@H]2CC[C@H](Cn3nnc4ccc(C(F)(F)F)cc4c3=O)[C@H]2C(=O)O)cc1 (single isomer, unassigned) [Example 58, (+)-(1RS,2RS,5SR)-2-[4-(Hexyloxy)benzoyl]-5-{[4-oxo-6-(trifluoromethyl)-1,2,3-benzotriazin-3(4H)-yl]methyl}cyclopentanecarboxylic acid] | 180 | 83 | 0.027 | 8.4
CCCCOc1ccc(C(=O)[C@@H]2CC[C@H](Cn3nnc4ccc(C(F)(F)F)cc4c3=O)[C@H]2C(=O)O)cc1 (single isomer, unassigned) [Example 67, (+)-(1RS,2RS,5SR)-2-(4-Butoxybenzoyl)-5-{[4-oxo-6-(trifluoromethyl)-1,2,3-benzotriazin-3(4H)-yl]methyl}cyclopentanecarboxylic acid] | 120 | 61 | 0.015 | 5.2
